Experimental data reported in US20110039779A1, “IGF-1R BINDING PROTEINS AND ANTAGONISTS” (priority 2007, published 2011).
Where two headings read alike, the source gives them in different places. Where a SMILES comes first, the peptide text is derived from it.

Experiments:
HIGF-1R = biological target: T1, HIGF-1R (Homo sapiens, UniProt P08069); assay: IGF-1R affinity, scintillation proximity assay (SPA assay), 125I-IGF1 displacement; format: binding
T1 construct: HIGF-1R was purified from a cell culture of BHK cells stably transfected with IGF-1R cDNA; made in house; host or cells: BHK cells stably transfected with IGF-1R cDNA
T1 sequence (P08069 31-736 limits assumed): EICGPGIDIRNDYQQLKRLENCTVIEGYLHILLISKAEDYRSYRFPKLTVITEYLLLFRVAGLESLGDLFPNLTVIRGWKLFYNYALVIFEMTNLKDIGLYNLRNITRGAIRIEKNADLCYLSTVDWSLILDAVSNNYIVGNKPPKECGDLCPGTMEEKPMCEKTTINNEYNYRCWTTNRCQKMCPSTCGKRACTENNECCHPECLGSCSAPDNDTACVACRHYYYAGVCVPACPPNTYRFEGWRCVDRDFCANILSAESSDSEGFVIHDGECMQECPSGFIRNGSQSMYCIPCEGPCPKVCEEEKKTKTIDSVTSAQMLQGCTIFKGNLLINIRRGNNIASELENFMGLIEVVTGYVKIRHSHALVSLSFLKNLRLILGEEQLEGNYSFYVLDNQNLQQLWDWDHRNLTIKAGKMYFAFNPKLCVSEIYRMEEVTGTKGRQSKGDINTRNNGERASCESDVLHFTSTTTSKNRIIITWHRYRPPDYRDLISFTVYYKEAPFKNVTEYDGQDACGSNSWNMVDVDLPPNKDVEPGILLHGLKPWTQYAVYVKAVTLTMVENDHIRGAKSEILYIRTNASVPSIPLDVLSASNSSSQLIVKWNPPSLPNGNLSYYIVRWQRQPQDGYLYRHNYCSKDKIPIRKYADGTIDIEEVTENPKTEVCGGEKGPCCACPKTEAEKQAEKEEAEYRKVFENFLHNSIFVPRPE
T1 sequence (P08069 741-1367 limits assumed): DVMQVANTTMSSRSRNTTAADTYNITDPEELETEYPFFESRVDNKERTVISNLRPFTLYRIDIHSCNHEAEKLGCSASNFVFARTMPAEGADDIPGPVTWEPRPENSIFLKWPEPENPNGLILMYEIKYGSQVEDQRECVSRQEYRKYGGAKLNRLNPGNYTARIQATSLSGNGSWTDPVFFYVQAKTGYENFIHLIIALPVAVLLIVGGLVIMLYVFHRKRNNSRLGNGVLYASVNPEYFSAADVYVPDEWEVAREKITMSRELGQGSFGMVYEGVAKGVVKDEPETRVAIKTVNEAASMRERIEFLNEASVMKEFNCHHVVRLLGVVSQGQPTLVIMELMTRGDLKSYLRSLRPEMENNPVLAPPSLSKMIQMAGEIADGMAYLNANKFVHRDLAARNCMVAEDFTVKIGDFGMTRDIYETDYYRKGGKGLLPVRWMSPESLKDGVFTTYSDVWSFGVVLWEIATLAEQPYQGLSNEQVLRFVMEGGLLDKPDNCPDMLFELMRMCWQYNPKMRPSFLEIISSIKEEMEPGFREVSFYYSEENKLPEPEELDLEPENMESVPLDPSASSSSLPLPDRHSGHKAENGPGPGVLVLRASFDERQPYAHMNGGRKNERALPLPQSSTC
Text: In certain cases, a scintillation proximity assay (SPA assay) was used to determine IGF-1R affinity.

MAPK42 = assay: downstream signaling in L6 cells: MAPK42; format: cell-based; details: 3 nM IGF-1, read-out: MAPK42, IC50 for down regulation of the stimulation to the basal level
Description: (§1) The tyrosine phosphorylation of IRS signaling (the 180 kDa band on a tyrosine phosphor Western blot) as well as activation of effectors MAPK 44 and 42 and PKB were analyzed by using antibodies specific for their active forms using methods substantially similar to those described in Example 14 of the '246 PCT application.
(§2) The effect of select peptides on downstream signaling (MAPK44, MAPK42, PKB/Akt, IRS-1, and IGF-1R) was also measured by studying the signaling in L6 cells predominantly expressing IGF-1R and very limited insulin receptors. […] The antagonistic effect of the peptides can be seen to affect all the downstream signaling from the IGF-1R.

SW480 cells = format: cell-based; details: for IC50: read-out: IC50, inhibition of IGF-1 (10 nM)-induced proliferation of SW480 cells
Description: For cell growth/density studies, a mitochondrial activity assay was used, as exemplified by the following. Cells (SW480, MCF-7S8) were propagated in complete medium (DME: F12, 10% FCS (SW 480) or 5% FCS (MCF-7S8, P/S)), trypsinized, and seeded in 96 well plates as 10,000 cells/well in medium with 0.5% FCS. All wells in the periphery were omitted and only filled with medium. […] All treatments are made in triplicates. […] Treatment was continued for 48 hours (SW480 cells) or 72 hours (MCF-7S8 cells) before quantification of the cell density. Media was exchanged each day. Media and peptides were diluted in DMSO. When measuring cell density, the volume of each well was adjusted to […] Pre-diluted WST-1 (1 ml+1.5 ml DME:F12) was added as 25 μL to each well including background samples. Three wells with media only served as background controls. The cells were incubated for 90 min protected against light in an incubator.

MiaPaCa cells [1] = assay: gene expression changes in MiaPaCa cells (gene arrays); format: cell-based, human; details: IGF-1 (25 ng/ml) +/− ANT-429, 24 hours
MAPK44 = assay: downstream signaling in L6 cells: MAPK44; format: cell-based; details: 3 nM IGF-1, read-out: MAPK44, IC50 for down regulation of the stimulation to the basal level
Description: as §1, §2

PKB/Akt = assay: downstream signaling in L6 cells: PKB/Akt; format: cell-based; details: 3 nM IGF-1, read-out: PKB/Akt, IC50 for down regulation of the stimulation to the basal level
Description: as §1, §2

MiaPaCa cells [2] = assay: MiaPaCa tumor growth inhibition in nude mice; format: in vivo
Description: Nude mice were inoculated with MiaPaCa cells (one million cells in matrigel) on the flank and followed until tumors reached a volume of greater than 100 mm^3. […] Animals were injected by the subcutaneous route 4 times per week for 3 weeks and followed for an additional 2 weeks without injections. Tumors were measured twice weekly. Animals were sacrificed and the tumors excised, weighed and photographed.

IRS-1 = assay: downstream signaling: IRS-1 tyrosine phosphorylation; format: cell-based; details: for IC50: L6 cells, 3 nM IGF-1, read-out: IRS-1, IC50 for down regulation of the stimulation to the basal level
Description: as §1, §2

MCF7 cells = MCF7 cells (Homo sapiens, UniProt P08069); assay: antagonism assay in starved MCF7 cells, luminescence viability, 72 hrs; format: cell-based; details: Table 9
Chain of MCF7 cells (P08069 31-736): as the sequence (P08069 31-736 limits assumed) above
Description: Additional binding and antagonism assays using candidate peptides were performed. […] Cell viability was determined by luminescence assay and IC50 was calculated using standard techniques.

IGF-IR = assay: downstream signaling in L6 cells: IGF-IR; format: cell-based; details: 3 nM IGF-1, read-out: IGF-IR, IC50 for down regulation of the stimulation to the basal level
Description: as §1, §2

[3] = biological target: human insulin receptor (HIR) (Homo sapiens, UniProt P06213); assay: human insulin receptor (HIR) affinity; format: binding; details: printed in brackets under the HIR affinity, not explained
Chain of human insulin receptor (HIR) (P06213 28-758 limits assumed): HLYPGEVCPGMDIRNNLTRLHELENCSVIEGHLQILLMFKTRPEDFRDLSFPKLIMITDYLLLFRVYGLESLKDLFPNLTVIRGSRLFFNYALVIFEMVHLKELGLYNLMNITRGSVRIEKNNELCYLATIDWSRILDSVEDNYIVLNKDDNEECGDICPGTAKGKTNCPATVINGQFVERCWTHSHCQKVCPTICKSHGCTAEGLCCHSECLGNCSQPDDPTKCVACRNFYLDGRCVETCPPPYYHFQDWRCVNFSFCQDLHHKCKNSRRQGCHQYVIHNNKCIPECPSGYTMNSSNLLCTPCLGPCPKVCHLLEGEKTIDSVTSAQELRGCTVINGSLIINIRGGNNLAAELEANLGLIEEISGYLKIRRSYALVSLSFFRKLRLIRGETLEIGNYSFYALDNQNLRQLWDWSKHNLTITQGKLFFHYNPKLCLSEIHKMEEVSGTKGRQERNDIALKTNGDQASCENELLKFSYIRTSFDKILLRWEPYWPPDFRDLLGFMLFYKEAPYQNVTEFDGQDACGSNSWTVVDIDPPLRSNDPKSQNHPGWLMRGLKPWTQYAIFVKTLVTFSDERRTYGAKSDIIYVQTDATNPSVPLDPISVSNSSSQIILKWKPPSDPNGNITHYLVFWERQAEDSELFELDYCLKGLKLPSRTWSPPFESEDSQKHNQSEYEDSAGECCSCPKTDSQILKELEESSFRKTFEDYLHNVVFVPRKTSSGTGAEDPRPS
Chain of human insulin receptor (HIR) (P06213 763-1382 limits assumed): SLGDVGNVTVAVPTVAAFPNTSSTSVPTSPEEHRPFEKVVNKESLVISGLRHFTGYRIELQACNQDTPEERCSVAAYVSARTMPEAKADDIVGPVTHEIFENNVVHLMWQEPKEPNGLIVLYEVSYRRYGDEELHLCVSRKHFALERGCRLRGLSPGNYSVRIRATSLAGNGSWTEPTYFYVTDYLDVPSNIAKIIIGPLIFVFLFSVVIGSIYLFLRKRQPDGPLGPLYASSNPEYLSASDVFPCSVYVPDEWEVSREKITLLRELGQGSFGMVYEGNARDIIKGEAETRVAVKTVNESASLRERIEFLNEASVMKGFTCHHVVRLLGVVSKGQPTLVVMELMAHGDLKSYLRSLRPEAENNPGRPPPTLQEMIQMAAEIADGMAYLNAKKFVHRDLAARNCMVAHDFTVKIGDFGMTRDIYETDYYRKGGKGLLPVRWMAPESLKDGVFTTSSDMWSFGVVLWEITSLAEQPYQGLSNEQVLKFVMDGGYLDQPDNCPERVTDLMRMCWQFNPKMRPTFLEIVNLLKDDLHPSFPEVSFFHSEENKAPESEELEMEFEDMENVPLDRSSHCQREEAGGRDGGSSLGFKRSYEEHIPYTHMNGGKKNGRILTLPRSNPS
Description: IGF-1R affinity studies were generally performed as follows. […] HIGF-1R was purified from a cell culture of BHK cells stably transfected with IGF-1R cDNA. The day before harvest cells were moved to serum free conditions and before harvest the cells were rinsed with and ice cold PBS solution. The cells were solubilized in cold lysis buffer (4 ml lysis buffer/1×10^8 cells); vortexed vigorously to lysis in lysis buffer (50 mM Hepes (pH 8.0); 150 mM NaCl; 1% Triton X-100; 2 mM EDTA; 10 μg/mlaprotinin; 0.5 mM PEFABLOC (Roche)); and the lysate centrifuged at 4° C., 20000 rpm, for 15 minutes. The HIGF-1R portion was absorbed to WGA-agarose beads and subjected to chromatography purification (Pharmacia biotech No 17-0760-01) (column washed with 20× column volumes wash buffer −50 mM Hepes (pH 8.0); 150 mM NaCl; 0.1% Triton X-100; 0.5 mM PEFABLOC (Roche)). The HIGF-1R portion was then eluted with 0.5 M n-Acetyl Glycosamine (NAG), 10% Glycerol in elution buffer (50 mM Hepes (pH 8.0); 150 mM NaCl; 0.1% Triton X-100; 0.5 mM PEFABLOC (Roche); 0.5 M n-acetyl glucosamine; 10% glycerol). […] After equilibration for 2 days at 4° C., each sample (200 μl) typically was precipitated by addition of 400 μl 25% PEG 6000, centrifuged, washed with 1 ml 15% PEG 6000, and counted in a gamma-counter. In some cases, human insulin receptor (HIR) affinity for select test peptides was similarly measured.

[4] = biological target: T2, IGF-1R on L6 (with mainly symmetric IGF-1R) (Rattus norvegicus, UniProt P24062); assay: displacement of IGF-1 binding on L6 cells
T2 construct: L6 cells predominantly expressing IGF-1R and very limited insulin receptors; endogenous in cells; host or cells: L6 cells
T2 sequence (P24062 31-737 limits assumed): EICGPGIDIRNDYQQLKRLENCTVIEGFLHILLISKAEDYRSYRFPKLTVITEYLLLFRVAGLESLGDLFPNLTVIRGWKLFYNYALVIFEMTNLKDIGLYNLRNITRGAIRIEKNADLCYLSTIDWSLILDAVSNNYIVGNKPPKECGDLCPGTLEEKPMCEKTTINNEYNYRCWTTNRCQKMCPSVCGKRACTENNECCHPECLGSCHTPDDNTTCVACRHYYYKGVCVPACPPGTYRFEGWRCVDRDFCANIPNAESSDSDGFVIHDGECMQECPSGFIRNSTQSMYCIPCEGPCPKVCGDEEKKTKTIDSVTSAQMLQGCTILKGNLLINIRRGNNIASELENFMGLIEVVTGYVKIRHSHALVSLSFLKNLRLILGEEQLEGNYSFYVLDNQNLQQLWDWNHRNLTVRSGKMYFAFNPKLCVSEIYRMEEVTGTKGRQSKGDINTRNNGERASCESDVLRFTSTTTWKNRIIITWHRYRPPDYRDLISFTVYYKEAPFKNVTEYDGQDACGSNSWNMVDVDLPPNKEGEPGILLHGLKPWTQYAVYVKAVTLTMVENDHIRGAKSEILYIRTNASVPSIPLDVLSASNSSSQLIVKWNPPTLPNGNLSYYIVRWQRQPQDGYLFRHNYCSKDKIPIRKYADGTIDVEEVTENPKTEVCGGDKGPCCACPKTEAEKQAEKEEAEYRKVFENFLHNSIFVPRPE
T2 sequence (P24062 742-1370 limits assumed): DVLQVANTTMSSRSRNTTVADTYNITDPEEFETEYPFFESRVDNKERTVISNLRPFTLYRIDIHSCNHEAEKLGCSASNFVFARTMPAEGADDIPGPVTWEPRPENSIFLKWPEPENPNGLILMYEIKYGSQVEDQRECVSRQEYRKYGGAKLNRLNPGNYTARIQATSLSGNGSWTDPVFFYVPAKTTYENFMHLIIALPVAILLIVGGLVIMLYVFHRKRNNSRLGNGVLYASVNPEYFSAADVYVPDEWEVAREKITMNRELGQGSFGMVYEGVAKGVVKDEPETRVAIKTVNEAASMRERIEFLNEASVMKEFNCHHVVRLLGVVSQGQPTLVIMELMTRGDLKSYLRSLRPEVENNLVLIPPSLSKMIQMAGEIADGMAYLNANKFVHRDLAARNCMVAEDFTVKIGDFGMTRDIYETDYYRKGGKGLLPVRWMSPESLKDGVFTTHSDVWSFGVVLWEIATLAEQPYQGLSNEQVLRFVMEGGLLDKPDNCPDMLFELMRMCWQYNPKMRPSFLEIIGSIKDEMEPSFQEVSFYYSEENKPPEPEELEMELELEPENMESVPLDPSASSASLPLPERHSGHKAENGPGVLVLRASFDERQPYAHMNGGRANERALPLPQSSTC

[5] = system: SGBS adipocytes transfected with HIR-encoding DNA; assay: 3H glucose incorporation (insulin agonist activity) in SGBS adipocytes; format: cell-based
Description: Insulin increases uptake of ^3H glucose into adipocytes and its conversion into lipid. Incorporation of ^3H into the lipid phase was determined by partitioning of lipid phase into a scintillant mixture, which excludes water-soluble ^3H products. […] The results are expressed as increase relative to full insulin response.

insulin receptor/IGF-1R = assay: tyrosine phosphorylation of insulin receptor/IGF-1R in L6-hIR cells (Western blot); format: cell-based

## CC(C)C[C@H](NC(=O)[C@H](CCC(=O)O)NC(=O)[C@H](CCC(=O)O)NC(=O)[C@H](CS)NC(=O)[C@H](CO)NC(=O)[C@H](Cc1ccc(O)cc1)NC(=O)[C@H](Cc1ccccc1)NC(=O)[C@@H](N)CO)C(=O)N[C@H](C(=O)N[C@@H](CCC(N)=O)C(=O)NCC(=O)N1CCC[C@H]1C(=O)N[C@@H](C)C(=O)N[C@@H](CCC(=O)O)C(=O)N[C@@H](CCCCN)C(=O)N[C@@H](CO)C(=O)N[C@@H](CCCCN)C(=O)NCC(=O)N[C@@H](CCC(N)=O)C(=O)N[C@@H](Cc1c[nH]c2ccccc12)C(=O)N[C@@H](CCC(=O)O)C(=O)NCC(=O)N[C@@H](CS)C(=O)N[C@@H](CCCCN)C(=O)N[C@@H](CCCCN)C(=O)O)C(C)C [Peptide F370] (H-SFYSCEELVQGPAEKSKGQWEGCKK-OH)
HIGF-1R
  Kd: 23000 nM

## DFYGCLLDLSLGVPSLGWRRRCITA [Peptide F429]
MAPK42
  IC50: 300 nM
SW480 cells; experiment 13717-019
  IC50: 500 nM
SW480 cells; experiment 13717-027
  IC50: 1000 nM
MiaPaCa cells [1]
  changes in apoptosis gene expression: modulate apoptosis genes
MAPK44
  IC50: 100 nM
PKB/Akt
  IC50: 100 nM
MiaPaCa cells [2]; […] (50 ug/injection)
  complete remission, animals: one
MiaPaCa cells [2]; […] (50 ug/injection), subcutaneous 4 times per week for 3 weeks
  animals responding to treatment: Two out of five
MiaPaCa cells [2]; group printed as 15 mg/kg (design: 300 ug/injection, 12 mg/kg), subcutaneous 4 times per week for 3 weeks
  tumor growth: significant inhibition of growth
MiaPaCa cells [2]; group printed as 15 mg/kg, subcutaneous 4 times per week for 3 weeks
  complete remission, animals: one
IRS-1; +/−3 nM IGF-1, FIG. 7 and FIG. 8
  potency for inhibiting down stream signaling through IRS-1 upon IGF-1 stimulation: potency of F429 is higher than F138
IRS-1
  IC50: 40 nM
MCF7 cells
  Activity: Antagonist
IGF-IR
  IC50: 50 nM

## QFYGCLLDLSLGVPSFGWRRRCITA [Peptide F138]
[3]
  HIR affinity, value in brackets: (0.013%)
[4]
  concentration displacing IGF-1 binding to IGF-1R on L6: 100 nM
MAPK42
  IC50: 300 nM
SW480 cells; first value of the cell: concentration needed to blunt the effect of 10 nM IGF-1, cells in words only = effect as reported, 48 hours
  IC50 in SW480 (M) in presence of IGF-1/alone: in presence of IGF-1: Antagonistic
SW480 cells; without IGF-1
  inhibition of basal growth of SW480, doses: > 100 nM
[5]; SGBS adipocytes, FIGS. 1A and 1B
  effect on glucose uptake induced by insulin or IGF-1: neither peptide F138 nor peptide F293 has any substantial effect on glucose uptake induced by insulin or IGF-1
[5]; SGBS cells
  doses not affecting glucose uptake in response to insulin/IGF-1: < 5 µM
Insulin receptor/IGF-1R
  inhibition of IGF-1 induced versus insulin induced phosphorylation: Some selectivity for inhibiting IGF-1 induced tyrosine phosphorylation as compared to insulin induced phosphorylation
IRS-1
  IC50: 300 nM
